Where two headings read alike, the source gives them in different places. Non-standard residues stand in square brackets, D forms with d. Residues, ends and D or L forms follow the SMILES beside them. pGlu = O=C1CC[C@@H](C(=O)O)N1; azaGly = NNC(=O)O

For data set [1], the system named is chorionic peptidase-1 (C-ase-1).
Experimental: Using the incubation system developed for the C-ase-1 activity, the degradation of each analog was tested. […] These studies were done using the C-ase-1 enzyme activity assay as described previously. […] The product formed was calculated by subtraction, and its inverse plotted against the inverse of the original substrate concentrations to determine the nature of the competition. The Ki was to be determined by plotting the inverse of the product that formed verses the inhibitor used.
The concentration of the product of the degraded GnRH was quantified by subtracting the remaining mammalian GnRH from the starting concentrations of mammalian GnRH. […] The Ks for the degradation of mammalian GnRH was calculated from the x axis intercept using Lineweaver-Burke double reciprocal plot of the concentration of the product formed versus the concentration of the substrate used.
The reaction was stopped by heating at 85° C. for 10 minutes. The remaining GnRH was determined using a specific radioimmunoassay. The formation of product, i.e., the N-terminal nonapeptide of GnRH, was calculated by subtraction and its inverse was plotted versus the inverse of the initial substrate to determine the Ks of the reaction. […] The relative potency of each analog was compared.
Using the incubation system developed for the C-ase-1 activity, the degradation of each analog was studied. […] The inverse of the product was plotted against the inverse of the original substrate concentrations to determine Ks of the competition. The Ki was determined by plotting the inverse of the product formed verses the inhibitor used.
In data set [2] the test system is human placental GnRH receptor. Nature of the data set: Placental GnRH receptor binding, radiolabeled D-Arg(6)-chicken II GnRH-aza-Gly(10)-amide label. On the procedure: The newly synthesized non-mammalian GnRH analogs and other commercially available mammalian GnRH analogs were used in placental receptors binding and enzyme stability study described here. On the basis of these studies, the most receptor potent and enzyme-stable analogs were chosen for further biopotency studies. GnRH receptors were purified from the membrane fractions from placentas. The purification procedure for the placental GnRH receptor was performed using a modification of the method described by Bramley et al., which reference is specifically incorporated herein by reference for the purpose. Addition of enzyme inhibitors for the endogenous C-ase-1 were used as well as agents for receptor stabilization. Initially, receptor-binding assays using ^125I-Buserelin as label were performed. The competitive binding of each of the analogs was studied over a dose range of 10^−11 to 10^−6 M. Incubation was at room temperature and receptor bound label was precipitated with polyethylene glycol. Specific and non-specific binding was determined. The data was subjected to Scatchard analysis. The non-mammalian GnRH analogs' ability to bind to the placental GnRH receptor was compared to that for synthetic mammalian GnRH (SEQ ID NO: 5), Buserelin (SEQ ID NO: 10) and other mammalian analogs. […] This way, the receptor affinity for that analog could be precisely determined. Receptors from three different term placentas were used to study each of these analogs. […] Bramley T A, McPhie C A, Menzies G S 1994 Human placental gonadotropin-releasing hormone (GnRH) binding sites: 111. Changes in GnRH binding levels with stage of gestation. Placenta 15:733-745.
In these and additional studies, placental GnRH receptors were purified from human term placentas after homogenization in 40 mM Tris (pH 7.4) and filtered through cheesecloth, followed by an initial centrifugation at 1,000×g for 10 minutes. The resulting supernatant was, again, centrifuged at 35,000×g for 30 minutes and the membrane pellet was collected and resuspended in Tris buffer with 0.3 M sucrose. The protein concentration was determined. Membranes were stored frozen at −20 C until use. Before use, placental membranes were diluted to 5,000 μg/mL with Tris buffer containing 0.5% BSA and 50 U/mL bacitracin. Placental membranes (100 μL) were used with varying concentrations of mammalian GnRH (SEQ ID NO: 5), Buserelin (SEQ ID NO: 10), chicken II GnRH (SEQ ID NO: 6), D-Arg (6)-chicken II GnRH-des-Gly (10)-ethylamide (SEQ ID NO: 2), or D-Arg (6)-chicken II GnRH-aza-Gly (10)-amide (SEQ ID NO: 2) (100 μL) and either radiolabeled Buserelin (SEQ ID NO: 10) or radiolabeled D-Arg (6)-chicken II GnRH-aza-Gly (10)-amide (SEQ ID NO: 2) (100 μL/tube and iodinated). Following incubation at room temperature for 4 hours, the bound and free hormones were separated using polyethylene glycol precipitation, followed by centrifugation. The binding affinity for each GnRH isoform or analog was calculated using the double reciprocal plot of bound versus free ligand. Each study was done using three different human term placental tissues.

The subject of data set [3] is early human placental explants. Kind of data set: Placental explant perifusion, hCG release. It is filed as cell-based. Particulars: for pattern of hCG response: continuous perifusion. The source says:
Placental tissues that are normally discarded were obtained from unidentified patients following first trimester pregnancy termination (early human placental explants). Tissue fragments, dissected of vessels and membranes, were placed in a perfusion system for study of 20 replicate chambers of the same tissue. This allows for simultaneous dose-response studies to be performed. To achieve this specific aim, explants from a given placenta were placed in 20 replicate chambers and perfused with basal medium for three hours at a rate of 6 ml/hr (dead volume of the system at 6 ml/hr is ten minutes). After three hours of equilibration, the analog was added to the basal perfusing medium. Quaduplicate chambers were made for chicken II GnRH analog (SEQ ID NO: 2) at 0, 10^−9, 10^−8, 10^−7, 10^−6 M and Buserelin (SEQ ID NO: 10) at 10^−7 M. The effluent medium of each chamber was collected after a three hour equilibration period. Two basal samples, at half hour intervals were collected, media with test substances was initiated and effluent medium collection continued for four and one half hours at thirty minute intervals. The hCG release was analyzed in each of these experiments. FIGS. 16 and 17 illustrate a typical response. […] Maximal response was observed within minutes after initiation of perfusion at 10^−8 M, with possible down regulation beginning after five hours at 10^−6 M as illustrated in FIG. 18.
In additional experiments, early gestation human placentas were perfused for six hours with medium supplemented with estradiol, progesterone, bovine serum albumin, and antibiotics (basal medium). Twenty replicate chambers were perifused with basal medium for two hours, then triplicate chambers were perifused with the medium containing either Buserelin (SEQ ID NO: 10), or 10^−9, 10^−8, 10^−7, 10^−6 M of a chicken II GnRH analog (SEQ ID NO: 2), leaving five control chambers. The eluted medium was collected at thirty minute intervals, starting one hour prior to the addition of GnRH analogs and throughout five hours of treatment. hCG released into the effluent media, as well as the production of GnRH, were measured using sensitive and specific radioimmunoassays. The release of hCG at each time point was normalized to its zero treatment release and the release throughout the treatment period and its average release was compared for various treatment regimens. These studies were repeated using tissues from three different first trimester placentas. The results of this experiment are illustrated in FIG. 20.

In the case of `N=C(N)NCCC[C@@H](NC(=O)[C@H](Cc1c[nH]cn1)NC(=O)[C@H](CO)NC(=O)[C@H](Cc1c[nH]c2ccccc12)NC(=O)[C@H](Cc1c[nH]cn1)NC(=O)[C@@H]1CCC(=O)N1)C(=O)N[C@@H](Cc1c[nH]c2ccccc12)C(=O)N[C@@H](Cc1ccc(O)cc1)C(=O)N1CCC[C@H]1C(=O)NNC(N)=O` [D-Arg(6)-chicken II GnRH-aza-Gly(10)-amide] ([pGlu]HWSH[dR]WYP[azaGly]-NH2), the “degradation by / competition for C-ase-1, in words” value in data set [1] was “essentially not degraded”. Also, the “binding affinity compared with mammalian GnRH” value in data set [2] (analog label) stood at 25 fold. In addition, the Kd amounted to 0.068 µM in data set [2] (placenta 2 membrane preparation, read-out: affinity constant (Ks)) and 0.093 ± 0.023 µM in data set [2] (three placental membrane preparations, read-out: average binding affinity). The “enhancement of affinity when the analog is used as label” value in data set [2] (versus Buserelin label) amounted to 2 fold. In data set [3] (10^−9 to 10^−6 M tested), the “concentration giving maximal hCG response” value is listed as 10^−8 M. Further, the entries for the “pattern of hCG response” value in data set [3] (listed as Chicken II GnRH analog) and in data set [3] (listed as chicken II GnRH analog) were “dose related biphasic response” and “biphasic stimulation of hCG”, respectively.

These data come from patent US20050282745A1, “Non-mammalian GnRH analogs and uses thereof in regulation of fertility and pregnancy” (priority 2001, published 2005).
